According to BindingDB's records for doi:10.1016/s0960-894x(99)00034-7 (University of Tokyo, 1999):

Biological target: Dipeptidyl peptidase 4 (Homo sapiens, UniProt P27487)
Test: Inhibitory activity against Dipeptidylpeptidase IV (DPP IV) in human acute lymphoblastic leukemia MOLT-4 cell line

Dipeptidyl peptidase 4, sequence (P27487 whole entry): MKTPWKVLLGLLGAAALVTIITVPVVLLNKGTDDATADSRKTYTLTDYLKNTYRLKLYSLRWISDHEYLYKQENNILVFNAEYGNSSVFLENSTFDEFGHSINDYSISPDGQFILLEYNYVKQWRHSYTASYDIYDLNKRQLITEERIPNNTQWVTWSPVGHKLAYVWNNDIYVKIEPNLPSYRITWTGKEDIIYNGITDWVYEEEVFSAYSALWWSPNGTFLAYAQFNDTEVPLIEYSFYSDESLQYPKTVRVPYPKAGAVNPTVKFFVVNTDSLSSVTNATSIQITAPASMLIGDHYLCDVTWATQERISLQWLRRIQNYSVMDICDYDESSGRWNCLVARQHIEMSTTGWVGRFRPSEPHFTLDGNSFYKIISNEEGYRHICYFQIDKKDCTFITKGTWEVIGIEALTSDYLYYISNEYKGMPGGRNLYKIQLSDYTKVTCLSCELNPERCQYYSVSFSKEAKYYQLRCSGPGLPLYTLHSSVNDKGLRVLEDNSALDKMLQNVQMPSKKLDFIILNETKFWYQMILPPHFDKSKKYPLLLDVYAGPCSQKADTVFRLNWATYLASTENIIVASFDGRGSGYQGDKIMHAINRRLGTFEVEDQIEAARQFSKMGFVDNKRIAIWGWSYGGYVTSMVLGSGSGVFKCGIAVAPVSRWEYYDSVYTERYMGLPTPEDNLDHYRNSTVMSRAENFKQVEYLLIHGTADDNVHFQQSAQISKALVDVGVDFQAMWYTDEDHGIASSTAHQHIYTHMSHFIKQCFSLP

IC50: > 324 µM
SMILES: CC(C)C[C@H](NC(=O)[C@@H](O)[C@H](N)Cc1ccccc1)C(=O)O
